Measurements: patent publication US5270334A, “4-methoxy-5-methyl-pyran-3-ol natural products and derivatives thereof” (E. R. Squibb & Sons, Inc., priority 1992, dated 1993)
≈ marks a conversion by molar mass, not a printed value. Like-named read-outs stand apart in the source and are kept apart here.

Assays:
dermatophytes = experiment: antifungal activity of lanomycin; type: cell-based; conditions: in words
Procedure: (§1) *Minimal inhibitory concentrations were determined by agar dilution assay
MICs were determined as in Table 5 except that the inoculum was 10^3 cfu.

Candida species = experiment: antifungal activity of lanomycin; type: cell-based; conditions: in words, Table 4
Procedure: as §1

Saccaromyces cerevisiae = experiment: agar diffusion assay with yeasts (zone of inhibition); type: cell-based; conditions: read-out: Zone diameter
Procedure: (§2) In addition to M.I.C. determinations, the following methodology was used to determine the activity of the compounds of this invention against yeasts. Fresh F-4 broth cultures of the test organisms were made from frozen vials. The broth cultures were incubated at 30° C. for 18 to 24 hours at which time the average cell count was assumed to be 5×10^7 CFU per ml. They were then used to inoculate flasks containing 300 ml of F-4 agar that had been melted and cooled to 48° C. in a temperature-controlled water bath. The inoculum consisted of 1.7 ml to give an inoculum level of about 2.8×10^5 CFU per ml. 25 ml of the inoculated agar was then poured into 150×15mm sterile Petri dishes and allowed to harden.
(§3) The medium was sterilized at 121° C. for 15 minutes at 15 psi.
(§4) F-4 agar has the same composition as the broth but with the addition of 15 g agar per liter.
(§5) Cellulose discs, 6.35 mm diameter, from Schleicher & Schuell, Inc., Keene, N.H., were charged with 10 μl of a solution composed of 1 mg/ml of lanomycin or scopularin in methanol. The discs were then placed on the surface of the inoculated agar plates of the test yeast strains, and the plates incubated at 30° C. for 18 to 24 hours. At that time, the diameter of the zones of inhibition was measured.

Candida parakrusei [1] = experiment: as above; type: cell-based
Procedure: as §2, §3, §4, §5

Cryptococcus neoformis = experiment: as above; type: cell-based
Procedure: as §2, §3, §4, §5

Candida quillermondi = experiment: as above; type: cell-based
Procedure: as §2, §3, §4, §5

Candida krusei [2] = experiment: as above; type: cell-based; conditions: Pichia kudriavzevii, SC2969; Candida krusei SC 2969; disc with 10 μl of 1 mg/ml; read-out: Zone diameter
Procedure: as §2, §3, §4, §5

Candida tropicalis [3] = experiment: as above; type: cell-based
Procedure: as §2, §3, §4, §5

Candida glabrata = experiment: as above; type: cell-based; conditions: Nakaseomyces glabratus, SC9342; Candida glabrata SC 9342; disc with 10 μl of 1 mg/ml; read-out: Zone diameter
Procedure: as §2, §3, §4, §5

Candida albicans = experiment: as above; type: cell-based
Procedure: as §2, §3, §4, §5

Candida stellatoidea = experiment: Anticandidal activity of lanomycin, agar dilution method (Table 5); type: cell-based; conditions: Candida albicans, SC2211; Candida stellatoidea SC 2211; 10^4 cfu
Procedure: (§6) MICs were determined by the agar dilution method using a medium composed of tryptone (5 g), malt extract (3 g), glucose (10 g) and yeast extract (3 g) in 1 L distiled water; 10^4 cfu of the test organism was applied to the agar.

Candida parakrusei [4] = experiment: as above; type: cell-based; conditions: for MIC: 10^4 cfu
Procedure: as §6

Candida pseudotropicalis = experiment: as above; type: cell-based; conditions: Kluyveromyces marxianus, SC11241; Candida pseudotropicalis SC 11241; 10^4 cfu
Procedure: as §6

Candida krusei [5] = experiment: as above; type: cell-based; conditions: for MIC: Pichia kudriavzevii, 10^4 cfu
Procedure: as §6

Candida tropicalis [6] = experiment: as above; type: cell-based; conditions: 10^4 cfu
Procedure: as §6

Candida guillermondii = experiment: as above; type: cell-based; conditions: for MIC: 10^4 cfu
Procedure: as §6

Epidermophyton floccosum = experiment: Antibacterial and antifungal activity of lanomycin, agar dilution assay (Table 4); type: cell-based
Procedure: as §1
(§7) **Higher value is based on hazy growth; lower value for clearly

Microsporum canis = experiment: as above; type: cell-based
Procedure: as §1, §7

[7] = tested on: cytochrome P450 enzymes, such as lanosterol demethylase; experiment: inhibition of cytochrome P450 enzymes (general statement); type: biochemical; conditions: in words
yeasts and fungi = experiment: activity against a variety of yeasts and fungi (general statement); type: cell-based; conditions: in words
lanosterol demethylase = target: T1, lanosterol demethylase (Candida albicans, UniProt P10613); experiment: inhibition of lanosterol demethylase, spectrophotometric carbon monoxide binding assay; conditions: Candida albicans SGY677; read-out: concentration which gives 50% inhibition of carbon monoxide binding
T1 construct: endogenous in cells; host or cells: Candida albicans SGY677
T1 sequence (P10613 whole entry): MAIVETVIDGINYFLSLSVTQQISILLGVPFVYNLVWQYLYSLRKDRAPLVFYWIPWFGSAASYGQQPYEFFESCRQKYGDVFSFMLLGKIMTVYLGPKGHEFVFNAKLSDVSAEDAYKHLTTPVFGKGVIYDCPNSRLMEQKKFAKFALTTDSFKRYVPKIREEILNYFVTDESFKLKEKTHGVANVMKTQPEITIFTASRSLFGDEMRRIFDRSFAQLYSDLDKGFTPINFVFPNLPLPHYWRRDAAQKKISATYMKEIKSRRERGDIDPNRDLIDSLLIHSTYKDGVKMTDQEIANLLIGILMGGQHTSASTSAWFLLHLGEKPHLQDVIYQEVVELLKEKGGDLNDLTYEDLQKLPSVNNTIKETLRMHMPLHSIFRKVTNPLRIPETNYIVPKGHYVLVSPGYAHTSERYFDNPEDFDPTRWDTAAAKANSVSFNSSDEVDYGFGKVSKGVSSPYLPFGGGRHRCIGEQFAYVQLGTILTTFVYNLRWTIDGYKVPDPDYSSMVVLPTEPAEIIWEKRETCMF
Procedure: The inhibition of lanosterol demethylase was determined by two methods: the spectrophotometric carbon monoxide binding assay of Omura and Sato (J. Biol. Chem. 239:2370-2378, 1964) and by a radiolabeled metabolic assay.
Cells of Candida albicans, SGY677, were grown overnight without shaking at 30° C. in a medium consisting of yeast extract 1%, peptone 2%, glucose 2% and distilled water. Cells were harvested by centrifugation and resuspended in 0.65M mannitol to an optical density at 600 nm of 2.5. At this density 1 ml of cells was equal to 6.7 mg constant dry weight (105° C. for 18 hours).
Scopularin and its alcohol derivative of Example 4 were added to the enzyme and the inhibition of carbon monoxide binding determined over a range of inhibitor concentrations.

[8] = Saccaromyces cerevisiae SGY 379, disc with 10 μl of 1 mg/ml
[9] = Candida, SC2966, read-out: Zone diameter
[10] = SC2210, Candida quillermondi SC 2210, disc with 10 μl of 1 mg/ml, read-out: Zone diameter

## C/C=C/C=C/C=C(\C)[C@H]1OC[C@@H](C)[C@@H](OC)[C@@H]1OC(=O)CN (relative stereo) [Lanomycin]
dermatophytes; Table 4
  activity against dermatophytes: showed activity
dermatophytes; Table 6
  activity against dermatophytes: active
Candida species
  activity against some Candida species: showed activity
Saccaromyces cerevisiae; Saccaromyces cerevisiae SGY 195, disc with 10 μl of 1 mg/ml
  zone of inhibition at 1000 µg/mL: 25 mm
Saccaromyces cerevisiae; [8]
  zone of inhibition at 1000 µg/mL: 30 mm
Candida parakrusei [1]; Candida, SC2621, read-out: Zone diameter
  zone of inhibition at 1000 µg/mL: 27 mm
Candida parakrusei [1]; [9]
  zone of inhibition at 1000 µg/mL: 12 mm
Cryptococcus neoformis; Cryptococcus, SC5817, read-out: Zone diameter
  zone of inhibition at 1000 µg/mL: 21 mm
Candida quillermondi; Candida, SC2996, read-out: Zone diameter
  zone of inhibition at 1000 µg/mL: 29 mm
Candida quillermondi; [10]
  zone of inhibition at 1000 µg/mL: 30 mm
Candida krusei [2]
  zone of inhibition at 1000 µg/mL: 12 mm
Candida tropicalis [3]; Candida tropicalis, SC2963, read-out: Zone diameter
  zone of inhibition at 1000 µg/mL: 28 mm
Candida tropicalis [3]; Candida tropicalis, SC8159, read-out: Zone diameter
  zone of inhibition at 1000 µg/mL: 29 mm
Candida glabrata
  zone of inhibition at 1000 µg/mL: 33 mm
Candida albicans; SC4314, Candida albicans SC 4314, disc with 10 μl of 1 mg/ml, read-out: Zone diameter
  zone of inhibition at 1000 µg/mL: 32 mm
Candida stellatoidea
  MIC: 50 µg/mL (≈ 162 µM)
Candida parakrusei [4]; SC2621, Candida parakrusei SC 2621
  MIC: 12.5 µg/mL (≈ 40.4 µM)
Candida parakrusei [4]; SC2966, Candida parakrusei SC 2966
  MIC: 25 µg/mL (≈ 80.8 µM)
Candida parakrusei [4]; in words, Table 5
  activity against certain strains of C. parakrusei: good activity
Candida pseudotropicalis
  MIC: 50 µg/mL (≈ 162 µM)
Candida krusei [5]; SC2967, Candida krusei SC 2967
  MIC: 6.3 µg/mL (≈ 20.4 µM)
Candida krusei [5]; SC2968, Candida krusei SC 2968
  MIC: 12.5 µg/mL (≈ 40.4 µM)
Candida krusei [5]; SC2969, Candida krusei SC 2969
  MIC: 25 µg/mL (≈ 80.8 µM)
Candida krusei [5]; in words, Table 5
  activity against certain strains of C. krusei: good activity
Candida tropicalis [6]; SC2963, Candida tropicalis SC 2963
  MIC: 25 µg/mL (≈ 80.8 µM)
Candida tropicalis [6]; SC8159, Candida tropicalis SC 8159
  MIC: > 100 µg/mL
Candida tropicalis [6]; SC9861, Candida tropicalis SC 9861
  MIC: 100 µg/mL (≈ 323 µM)
Candida tropicalis [6]; SC10597, Candida tropicalis SC 10597
  MIC: 100 µg/mL (≈ 323 µM)
Candida guillermondii; SC2210, Candida guillermondii SC 2210
  MIC: 50 µg/mL (≈ 162 µM)
Candida guillermondii; SC2996, Candida guillermondii SC 2996
  MIC: 1.6 µg/mL (≈ 5.17 µM)
Candida guillermondii; in words, Table 5
  activity against certain strains of C. guillermondii: good activity
Epidermophyton floccosum; SC9185, Epidermophyton floccosum SC 9185, higher value, based on hazy growth
  MIC: 100 µg/mL (≈ 323 µM)
Epidermophyton floccosum; SC9185, Epidermophyton floccosum SC 9185, lower value, clearly discernible growth
  MIC: 1.6 µg/mL (≈ 5.17 µM)
Microsporum canis; SC9237, Microsporum canis SC 9237, higher value, based on hazy growth
  MIC: 100 µg/mL (≈ 323 µM)
Microsporum canis; SC9237, Microsporum canis SC 9237, lower value, clearly discernible growth
  MIC: 1.6 µg/mL (≈ 5.17 µM)
[7]
  inhibition of cytochrome P450 enzymes, such as lanosterol demethylase: inhibit
Yeasts and fungi
  activity against a variety of yeasts and fungi: has activity

## CCC/C=C/C=C/C=C(\C)[C@H]1OC[C@@H](C)[C@@H](OC)[C@@H]1OC(=O)CN (relative stereo) [Scopularin, (2α, 3β, 4α, 5α)-Tetrahydro-4-methoxy-5-methyl-2-(1-methyl-1,3,5-nonatrienyl)-2H-pyran-3-ol, aminoacetate ester]
Saccaromyces cerevisiae; [8]
  zone of inhibition at 1000 µg/mL: 30 mm
Saccaromyces cerevisiae
  zone of inhibition at 1000 µg/mL: 23 mm
Candida parakrusei [1]; [9]
  zone of inhibition at 1000 µg/mL: 20 mm
Candida parakrusei [1]; SC2621, Candida parakrusei SC 2621, disc with 10 μl of 1 mg/ml, read-out: Zone diameter
  zone of inhibition at 1000 µg/mL: 31 mm
Cryptococcus neoformis; SC5817, Cryptococcus neoformis SC 5817, disc with 10 μl of 1 mg/ml, read-out: Zone diameter
  zone of inhibition at 1000 µg/mL: 25 mm
Candida quillermondi; [10]
  zone of inhibition at 1000 µg/mL: 31 mm
Candida quillermondi; SC2996, Candida quillermondi SC 2996, disc with 10 μl of 1 mg/ml, read-out: Zone diameter
  zone of inhibition at 1000 µg/mL: 32 mm
Candida krusei [2]
  zone of inhibition at 1000 µg/mL: 20 mm
Candida tropicalis [3]; SC2963, Candida tropicalis SC 2963, disc with 10 μl of 1 mg/ml, read-out: Zone diameter
  zone of inhibition at 1000 µg/mL: 32 mm
Candida tropicalis [3]; SC8159, Candida tropicalis SC 8159, disc with 10 μl of 1 mg/ml, read-out: Zone diameter
  zone of inhibition at 1000 µg/mL: 30 mm
Candida glabrata
  zone of inhibition at 1000 µg/mL: 36 mm
Candida albicans; Candida albicans, SC4314, read-out: Zone diameter
  zone of inhibition at 1000 µg/mL: 37 mm
Lanosterol demethylase
  IC50: 36 µM
[7]
  inhibition of cytochrome P450 enzymes, such as lanosterol demethylase: inhibit
Yeasts and fungi
  activity against a variety of yeasts and fungi: has activity
